According to patent US6605424B1, “Method of detecting inhibitors of agonist-specific desensitization” (Duke University, priority 1989, dated 2003):
No end group written: not given here.

What was measured:
[1] = system: β2ARs in permeabilized A431 cells; assay: Desensitization of β2ARs in permeabilized A431 cells; format: cell-based, human; details: 100 μM
Description: Permeabilization of cells was accomplished as follows. Human epidermoid carcinoma A431 cells were grown to about 95% confluence in Dulbecco's modified Eagle's medium supplemented with 10% fetal calf serum. Cells were harvested with collagenase, washed three times with calcium-free phosphate-buffered saline (PBS), then washed twice in 150 mM potassium glutamate/10 mM Hepes/5 mM EGTA/7 mM MgCl2, pH 7.1 (KG buffer), and finally resuspended in KG buffer supplemented with 5 mM glucose and 2 mM ATP (KG-A buffer) at a density of 4×10^7 cells per ml.
At 4×10^7 cells per ml, about 0.015% digitonin was necessary to achieve permeabilization of >95% cells as assessed by staining with trypan blue. In all experiments, digitonin was added stepwise until >95% of the cells were trypan blue positive.

βAR kinase [2] = target: T1, βAR kinase (Bos taurus, UniProt P21146); assay: Phosphorylation of purified reconstituted β2ARs by purified βAR kinase (Example II); format: biochemical, bovine; details: 100 μM
T1 construct: βAR kinase was purified from bovine cerebral cortex; from tissue; host or cells: bovine cerebral cortex
T1 sequence (P21146 1-689): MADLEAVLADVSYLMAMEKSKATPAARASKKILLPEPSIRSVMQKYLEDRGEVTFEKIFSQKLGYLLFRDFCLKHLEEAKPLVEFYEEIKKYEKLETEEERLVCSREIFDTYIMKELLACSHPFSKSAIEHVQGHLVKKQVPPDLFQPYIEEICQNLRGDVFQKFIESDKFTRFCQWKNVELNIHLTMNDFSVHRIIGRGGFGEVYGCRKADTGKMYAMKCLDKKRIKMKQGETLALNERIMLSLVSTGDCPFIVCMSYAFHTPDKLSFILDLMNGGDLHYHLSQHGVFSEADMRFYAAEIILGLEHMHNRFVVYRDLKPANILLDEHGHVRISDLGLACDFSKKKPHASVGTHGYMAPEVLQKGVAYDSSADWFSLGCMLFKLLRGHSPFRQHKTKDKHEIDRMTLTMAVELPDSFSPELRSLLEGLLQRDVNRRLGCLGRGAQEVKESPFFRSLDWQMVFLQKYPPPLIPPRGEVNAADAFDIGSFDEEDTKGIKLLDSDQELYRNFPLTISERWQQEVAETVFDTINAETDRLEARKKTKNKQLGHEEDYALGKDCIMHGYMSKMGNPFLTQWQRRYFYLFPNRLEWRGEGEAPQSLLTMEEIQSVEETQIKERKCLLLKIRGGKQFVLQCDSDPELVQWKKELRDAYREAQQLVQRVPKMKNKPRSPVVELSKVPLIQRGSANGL
Description: FIG. 7. […] (Inset) Relevant section of a representative autoradiogram. Data are means±SEM of three independent experiments. […] Desensitization was measured as the percent loss of stimulation by 10 μM (−)-isoproterenol of adenylyl cyclase activity in membranes. […] Data are means±SEM of four independent experiments.
Purified β2ARs were inserted into phosphatidylcholine vesicles by chromatography on Extracti-gel, followed by polyethylene glycol treatment and centrifugation at 280,000×g for 90 min (Cerione et al (1984) Biochemistry 23:4519-4525). Phosphorylation of the reconstituted receptors by purified βAR kinase was done in the presence of 50 μM (−)-isoproterenol as described (Benovic et al (1987) J. Biol. Chem. 262:9026-9032). Subsequently, the samples were subjected to sodium dodecyl sulfate polyacrylamide gel electrophoresis on 10% gels (Laemmli (1970) Nature 227:680-685). The phosphorylated β2ARs were visualized by autoradiography, and the corresponding bands were cut out and their content of ^32P quantified.

βAR kinase [3] = target: T1, βAR kinase; assay: Phosphorylation of β2AR and synthetic β2AR peptides by βAR kinase (substrate kinetics); format: biochemical, bovine; details: for phosphorylation by βAR kinase: FIG. 10; for Ratio (Vmax/Km relative to β2AR + ISO): substrate of βAR kinase
Description: FIG. 11. Kinetic parameters of the βAR kinase for β2AR. Reconstituted β2AR (0.05-0.3 μM) was incubated for 15 min at 30° C. with purified βAR kinase (˜30 ng) in the presence (◯) or absence (●) of 50 μM (−)-isoproterenol. Reactions were stopped by the addition of SDS sample buffer before electrophoresis on a 10% SDS polyacrylamide gel. ^32P-labeled receptor was determined by cutting and counting the dried gel following […] autoradiography.
FIG. 12. Kinetic parameters of the βAR kinase for synthetic peptides CT-2 and CT-3. The synthetic β2AR peptides CT-2 (0.6-3.3 mM;Δ) and CT-3 (0.6-4.3 mM; ▴) were incubated for 60 min at 30° C. with purified βAR kinase (˜30 ng). Reactions were stopped by the addition of SDS urea sample buffer before electrophoresis on a 9% SDS urea polyacrylamide gel. ^32P-labeled peptide was determined by cutting and counting the gel following autoradiography.
(§1) βAR kinase was purified from bovine cerebral cortex by modification of a previously described procedure (Benovic et al (1987) J. Biol. Chem. 262:9026-9032). Briefly, 250 g of bovine cortex was homogenized and the resulting high speed supernatant fraction was precipitated with 13-26% ammonium sulfate. This material was initially chromatographed on an Ultrogel AcA34 column equilibrated with 5 mM Tris-HCl, pH 7.5, 2 mM EDTA, 5 μg/ml leupeptin, 5 μg/ml pepstatin, 15 μg/ml benzamidine, 0.2 mM phenylmethyl sulfonyl fluoride (buffer A). The peak activity was diluted 1:1 with buffer A containing 0.02% triton X-100 and applied to a DEAE Sephacel column. Elution was accomplished with a 0-80 mM NaCl gradient in buffer A containing triton X-100. The peak activity was then applied directly to a CM Fractogel column and eluted with a 0-100 mM NaCl gradient in buffer A containing triton X-100. The purified kinase was stored at 4° C.
Phosphorylation of βAR was accomplished by incubating reconstituted βAR (0.5-5 pmol/incubation) with βAR kinase (10-50 ng) in a buffer containing 20 mM Tris-HCl, pH 7.5, 2 mM EDTA, 10 mM NaCl, 5 mM MgCl2, 5 mM sodium phosphate, 0.5 mM ascorbic acid, 0.15 mM [γ-^32P]ATP (1-5 cpm/fmol) at 30° C. for the indicated time (see Figures indicated below and corresponding description). Some incubations also contained 50 μM (−)-isoproterenol. Incubations were stopped by the addition of 50 μl of SDS sample buffer followed by electrophoresis on 10% homogeneous polyacrylamide gels. Phosphorylated βAR was visualized by autoradiography and the corresponding bands were excised and counted to determine the pmol of phosphate incorporated.
Synthetic βAR peptides were phosphorylated as follows by βAR kinase. […] Following autoradiography the phosphorylated peptides were excised and counted to determine the amount of phosphate incorporated. […]

βAR kinase [4] = target: T1, βAR kinase; assay: Inhibition of β2AR phosphorylation by βAR kinase by synthetic peptides (Example III); format: biochemical, bovine
Description: FIG. 13. Inhibition of β2AR phosphorylation by synthetic peptides. Reconstituted β2AR (˜0.4 pmol) was incubated for 30 min at 30° with purified βAR kinase (˜30 ng) in the presence of 50 mM Tris-HCl, pH 7.5, 2 mM EDTA, 10 mM NaCl, 5 mM MgCl2, 5 mM sodium phosphate, 50 μM (−)-isoproterenol and 0.10 mM [γ^32P]ATP (2.0 cpm/fmol). Synthetic β2AR peptides were varied from 0 to 1 mM and included CI (Δ), CII (▴), CIII-2 (◯) and CT-1 (●). Reactions were stopped by the addition of […]. ^32P-labeled receptor was determined by cutting and counting the dried gel following autoradiography.
The β2-adrenergic receptor from hamster lung was purified to apparent homogeneity by sequential affinity and high performance liquid chromatography as described (Benovic et al (1984) Biochemistry 23:4510-4518). The purified receptor was reinserted into phosphatidylcholine vesicles as previously described (Cerione et al (1983) Nature 306:562-566). The protein-lipid pellets were resuspended in 20 mM Tris-HCl, pH 7.2, 2 mM EDTA and used as a substrate for the βAR kinase.
as §1
The inhibition of substrate phosphorylation by βAR kinase in the presence of synthetic peptides was assayed as follows. Reconstituted βAR (0.2-1 pmol/inclubation) was incubated with βAR kinase (10-30 ng) in a buffer containing 50 mM Tris-HCl, pH 7.5, 2 mM EDTA, 10 mM NaCl, 5 mM MgCl2, 5 mM sodium phosphate, 50 μM (−)-isoproterenol, 0.10 mM [γ-^32P]ATP (1-3 cpm/fmol) at 30° C. for 30 min. Synthetic β2AR peptides were varied in concentration from 0 to 2 mM. Reactions were quenched by the addition of SDS sample buffer followed by gel electrophoresis. In some experiments urea treated rod outer segments (Wilden et al (1982) Biochemistry 21:3014-3022; Shichi et al (1978) J. Biol. Chem. 253:7040-7046) were used as the substrate for βAR kinase. To further define the specificity of the peptide inhibition, phosvitin, casein (see Example I) and the synthetic peptides CT-2 and CT-3 were used as substrates for βAR kinase.
SDS polyacrylamide gel electrophoresis was performed by the method of Laemmli (Nature (1970) 227:[…]) using 10 or 15% homogeneous slab gels. SDS sample buffer contained 8% SDS, 10% glycerol, 5% β-mercaptoethanol, 25 mM Tris-HCl, pH 6.5 and 0.003% bromphenol blue. SDS urea polyacrylamide gel electrophoresis was carried out using 6.5 M urea, 0.1% SDS, 100 mM H3PO4, pH 6.8 with Tris-HCl and 9% acrylamide (Swank et al (1971) Anal. Biochem. 39:462). SDS urea sample buffer contained 1% SDS, 8M urea, 10 mM H3PO4, pH 6.8 with Tris-HCl, 1% β-mercaptoethanol and 0.003% bromphenol blue.

Sequence	Inhibition of Desensitization, % [1]	inhibition at 100 µM (βAR kinase [2])	phosphorylation by βAR kinase (βAR kinase [3])	Ratio (Vmax/Km relative to β2AR + ISO) (βAR kinase [3])	IC50 (βAR kinase [4]; hamster β2AR peptides, ND = no significant inhibition at ˜500 μM, read-out: IC50 (μM), inhibition of β2AR phosphorylation by βAR kinase)	inhibition of β2AR phosphorylation (βAR kinase [4]; tested at ˜0.5 mM)
AKFERLQTVTN [β2AR-(59-69)]	3 ± 12%	0%				
GYSSNSNGKTDYMGEASGCQLGQEKESER [CT-2 (353-381)]			are phosphorylated by βAR kinase	2.3 × 10^−6	142 µM	
QGTVPSLSLDSQGRNCSTNDSPL [CT-3 (396-418)]			are phosphorylated by βAR kinase	1.3 × 10^−6		do not inhibit
